≈ marks a conversion by molar mass, not a printed value. Structures can show the parent of a compound that is named as a salt.
Assays:
[1] = tested on: CCC-ESF cells; format: cell-based, human; details: 30 min pre-incubation with inhibitor, vs. control
Protocol: (§1) Endocytosis mechanisms were assessed using cellular uptake assays in the presence of chemicals known to inhibit specific endocytosis pathways. Cells were incubated with CPZ, FLP, GNT, CCD, DMA, NaN3, or MS (at […], respectively) for 30 min at 37°C. After exposure to these inhibitors, 200 µL of C6-labeled NLCs was added to each well and incubated for 30 min. After the incubation, cells were prepared for flow cytometry as described earlier and the data for at least 20,000 cells were acquired. The cells treated with C6-labeled NLCs alone were considered as the control cells.

[2] = Aqueous solubility in the release medium; format: physicochemical; details: normal saline containing 20% PEG 400
[3] = tested on: mice; design: method as in ref 5 = [5]; 5. Guan YZ Shi YB Wang H Summary on the advanced research of lappaconite hydrobromide Theory Pr Chin Med 2005 15 1838 1840; details: cited from earlier work
[4] = tested on: rats; design: method as in ref 5 = [5]; 5. Guan YZ Shi YB Wang H Summary on the advanced research of lappaconite hydrobromide Theory Pr Chin Med 2005 15 1838 1840; details: cited from earlier work
[5] = design: method as in ref 6 = [6]; 6. Liang ZF Lyu YP Yuan W Liu YL Zhu XC Dose-effect relationship of lappaconitine Chin Pharmacol Bull 1993 9 146; details: per os; cited from earlier work
[6] = tested on: HaCaT cells; assay: Endocytic pathway: uptake of C6-labeled NLCs in presence of endocytosis inhibitors; format: cell-based, human; details: 30 min pre-incubation with inhibitor, vs. control
Protocol: as §1

monensin sodium [MS]
effect on internalization/uptake of C6-labeled NLCs [1]: did not significantly affect

CN(C)c1nc(N)c(C(=O)NC(=N)N)nc1Cl [DMA, 5-(N,N-dimethyl)-amiloride hydrochloride]
effect on internalization/uptake of C6-labeled NLCs [1]: did not significantly affect

C=C1[C@@H](C)[C@H]2[C@H](Cc3ccccc3)NC(=O)[C@]23[C@H](OC(C)=O)/C=C/[C@@](C)(O)C(=O)[C@@H](C)C/C=C/[C@H]3[C@@H]1O [CCD, cytochalasin D]
effect on internalization/uptake of C6-labeled NLCs [1]: significantly inhibited

[N-]=[N+]=[N-].[Na+] [NaN3, sodium azide]
effect on internalization/uptake of C6-labeled NLCs [1]: did not significantly affect

CCN1C[C@]2(OC(=O)c3ccccc3NC(C)=O)CC[C@H](OC)[C@@]34[C@@H]2C[C@@H]([C@@H]13)[C@@]1(O)C[C@H](OC)[C@H]2C[C@@H]4[C@]1(O)[C@H]2OC [LA, lappaconitine]
aqueous solubility in the medium [2]: 849.79 ± 36.95 µg/mL (≈ 1450 µM) | oral LD50 [3]: 32.4 mg/kg | oral LD50 [4]: 20 mg/kg | certain safety factor (CSF) [5]: 1.01 | standard safety margin (SSM) [5]: 1.0%

CN(C)CCCN1c2ccccc2Sc2ccc(Cl)cc21 [CPZ, chlorpromazine]
effect on internalization/uptake of C6-labeled NLCs [1]: did not significantly affect

CCCCC[C@@H](O)[C@H]1C(=O)O[C@H](C)[C@@H](O)/C=C/C=C/C=C/C=C/C=C(\C)[C@@H](O)C[C@H](O)C[C@H](O)C[C@H](O)C[C@H](O)C[C@H](O)C[C@@H]1O [FLP, filipin III]
effect on uptake of C6-labeled NLCs (average fluorescence intensity) [6]: significantly reduced | effect on internalization/uptake of C6-labeled NLCs [1]: significantly inhibited

O=c1c(-c2ccc(O)cc2)coc2cc(O)cc(O)c12 [GNT, genistein]
effect on internalization/uptake of C6-labeled NLCs [1]: did not significantly affect

CCN1C[C@]2(OC(=O)c3ccccc3NC(C)=O)CC[C@H](OC)C34C1C(O)(C[C@@H]32)[C@@]1(O)C[C@H](OC)[C@H]2C[C@@H]4[C@]1(O)[C@H]2OC [RAN, ranaconitine]
aqueous solubility in the medium [2]: 582.06 ± 16.27 µg/mL (≈ 969 µM)

From paper PMC4496826, “Nanostructured lipid carriers for percutaneous administration of alkaloids isolated from Aconitum sinomontanum” (Journal of Nanobiotechnology, 2015)
